How the values were obtained:
erythrocytes = test: Cell-based antioxidant protection in erythrocytes (CAP-e) assay; settings: for lysis of the cells: highest dose (3.3 mg/ml), erythrocytes
Experimental: The cell-based antioxidant protection in erythrocytes (CAP-e) assay (Honzel et. al., 2008, and Jensen GS. Cell-based antioxidant protection assay, also disclosed in U.S. Pat. No. 8,465,988, incorporated herein in its entirety by this reference) was used. This testing was selected to measure antioxidant power but, in addition, the method ensures that the antioxidant agent crosses the cell's lipid boundary layer so that only intracytoplasmic activity is measured. […] The tested concentrations for both gadusol and the Porphyra-334 ranged from 0.001 to 3.33 mg/mL.

Ames Test = format: cell-based
From the text: (§1) The amount of gadusol incorporated to provide the intended in vivo sunscreen SPF boosting activity can be from about 0.25, 0.50, 0.75, 1.0, 1.25, 1.50, 1.75, or 2.0% (w/w) in the sunscreen formulation that includes a physical/inorganic sunscreen active material, where any value can form an upper or lower endpoint, as appropriate. Still further, the amount of gadusol in the sunscreen formulation can be from about 0.25 to 2.0% (w/w), or from about 0.5 to 1.0% (w/w). In these, and possibly other amounts, gadusol suitably can provide a safe and effective sunscreen boosting effect when combined with sunscreen active ingredients. […] To summarize these safety tests, the cellular toxicity of gadusol was compared to that of a common sunscreen ingredient, oxybenzone. Vero E6 fibroblasts were used to evaluate toxicity. […] Toxicity towards E. coli was also not found.

E. coli = test: Toxicity towards E. coli; format: cell-based
From the text: as §1

[1] = UV absorbance of the compounds; format: physicochemical; settings: at 296 nm
Experimental: (§2) Yet further, the inventors have determined that the stability of aqueous gadusol can be improved when stored under acidic conditions. For example, 90% gadusol activity can be retained after 90 days at pH 2.5, where the concentration of gadusol is determined spectrophotometrically at 296 nm where it has an extinction coefficient of 21,800 M^−1 cm^−1. A standardized concentration curve can be used to determine an amount of gadusol in a volume sampled from a test solution at various time periods. Therefore, storage under acidic conditions may be useful for stabilizing gadusol generally, e.g., prior to introduction into a topical formulation. Combining gadusol with another antioxidant may be useful for extending the shelf life or stability of gadusol in a topical formulation.

[2] = In vivo SPF determination (FDA 21 CFR 201.327 SPF test procedure); design: species or system human
Experimental: An in vivo SPF determination was conducted according to FDA, 21 CFR Sec. 201.327, subpart (i), SPF Test Procedure, Sunscreen Drug Products for Over-the-Counter Human Use, Final Monograph, Federal Register, Vol. 76, No. 117, Jun. 17, 2011, the disclosure of which is incorporated herein in its entirety by this reference. Each in vivo test for a sunscreen formulation was tested on three different subjects.
For subject enrollment, the test subjects reported to the testing laboratory and received a complete explanation of the study procedures. Those who participated signed a written, witnessed consent form, and a permission to release personal health information form and provided a brief medical history. The technician did a final examination of the subject's back, between the belt-line and shoulder blades and determined their suitability to participate in this study.
A Xenon Arc Solar Simulator lamp, which has a continuous light spectrum in the UVA and UVB range (290-400 nanometers) was utilized for the in vivo light source. The spectral output of the solar simulator was filtered so that it meets the spectral output requirements for testing Sunscreen Drug Products for over-the-counter human use; FDA Final Monograph, 21 CFR Part 201.327 (i)(1), UV Source, Federal Register, Vol. 76, No. 117, Jun. 17, 2011 and the International Sun Protection Factor (SPF) Test Method, May 2006, the disclosure of which is incorporated herein in its entirety by this reference.
For a baseline value, a series of 5 UV radiation doses expressed as Joules/square meter, increasing in 25% increments, was administered to two unprotected separate locations on each test subject's back, just below the shoulder blades and above the belt-line, to determine the initial unprotected MED (MEDu).
The MEDu was administered in the following 5 dose series, with X representing the amount of UV energy projected to produce the test subject's MEDu (Table C).
On Day 2, subjects returned to the testing laboratory within 16 to 24 hours following completion of the MEDu doses for evaluation of their responses, and to determine each subject's unprotected MED (MEDu). A subject's Minimal Erythemal Dose (MED) was the quantity of erythema effective energy, or dose corresponding to the first site that produced the first unambiguous erythema reaction with well-defined borders. The following grading scale used in this study for determining a MED (+) response. • − No perceptible erythemal response • ? […]
MEDp UV Dose was administered by the technician via a series of 5 UV radiation doses expressed as Joules/square meter, as specified in FDA, 21 CFR, Sec. […]

[3] = In vitro SPF determination on VitroSkin substrate (Labsphere UV-1000, absorbance 290-400 nm); format: physicochemical
Experimental: SPF was also evaluated using an in vitro method that utilizes a synthetic/simulated skin as a test substrate. In this regard, VitroSkin® is an advanced testing substrate that effectively mimics the surface properties of human skin. It has been formulated to have topography, pH, critical surface tension, chemical reactivity and ionic strength that is similar to human skin. The procedure for in vitro testing was conducted according to a standard protocol. For testing, the test product was applied in a known amount to the substrate at an application density of 2 mg/cm^2. The in vitro SPF scores were determined using a Labsphere UV-1000 Ultraviolet Transmittance Analyzer. Spectral scans of absorbance of the artificial skin treated with a sample sunscreen formulation were performed in the UV region of 290-400 nm. The in vitro SPF was then calculated using the absorbance scan results. At least 5 in vitro SPF values were recorded for each example formulation and the averages calculated for reporting.
In another example, gadusol was tested by the in vitro method using the Vitroskin substrate in the methodology discussed above. The COS1 formulation having 0.0 and 0.5% (w/w) gadusol and the COS2 formulations were tested with 0, 0.25, 0.5% (w/w) gadusol.

[4] = Stability of aqueous gadusol under acidic conditions (spectrophotometric at 296 nm); format: physicochemical; settings: after 90 days at pH 2.5
Experimental: as §2

Comet assay = format: cell-based
From the text: as §1

[5] = Folin-Ciocalteu antioxidant capacity; format: biochemical; settings: concentrations ranging from about 0.3 to 10 mg/ml
Vero E6 fibroblasts = format: cell-based
From the text: as §1

| SMILES | effect on the protective action of gadusol (CAP-e) (erythrocytes; gadusol and Porphyra-334 combined) | lysis of the cells (erythrocytes) | mutagenicity in the Ames Test (Ames Test) | Toxicity towards E. coli (E. coli) | extinction coefficient [1] | in vivo SPF, times the SPF conferred by 10% ZnO alone ([2]; 0.5% gadusol (w/w) with 10% ZnO) | in vivo SPF, times the SPF conferred by 10% ZnO alone ([2]; 0.75% gadusol (w/w) with 10% ZnO) [times] | in vivo SPF, times the SPF conferred by 10% ZnO alone ([2]; 1.0% gadusol (w/w) with 10% ZnO) [times] | SPF boost ([2]; gadusol 0.5 to 1% (w/w) in formulation containing 10% ZnO) [%] | greater in vitro SPF when added to a composition containing 10% ZnO ([3]; 0.5% (w/w) gadusol) [%] | in vitro absorbance on addition to a 10% ZnO sunscreen formulation ([3]; 0.5% gadusol, from about 290 to about 325 nm, FIG. 6) | in vitro SPF activity of gadusol by itself ([3]; activity of the formulation matrix (1.1) subtracted) | gadusol activity retained [4] [%] | toxicity in the comet assay (Comet assay) | antioxidant power (Folin-Ciocalteu) [5] | cellular toxicity compared to oxybenzone (Vero E6 fibroblasts) | antioxidant activity (CAP-e) (erythrocytes; at 0.133 mg/ml) | antioxidant activity (CAP-e) compared with Porphyra-334 (erythrocytes; at about 1 mg/ml) |
| --- | --- | --- | --- | --- | --- | --- | --- | --- | --- | --- | --- | --- | --- | --- | --- | --- | --- | --- |
| COC1=C(NCC(=O)O)C[C@@](O)(CO)CC1=N[C@H](C(=O)O)[C@@H](C)O [Porphyra-334, reference compound] | did not interfere with the protective action of the gadusol | caused some lysis of the cells |  |  |  |  |  |  |  |  |  |  |  |  |  |  |  |  |
| COC1=C(O)CC(O)(CO)C(O)C1=O (stereo not shown) [gadusol] |  | caused some lysis of the cells | not to be mutagenic | not found | 21,800 M^−1 cm^−1 | about 1.35 times | ~1.51 | ~2.0 | 135 to 200 | ~50 | significantly more absorbance | 2.5-2.8 SPF units | 90 | nor was it toxic | substantially equivalent to a mycosporine compound from “nori” seaweed | less toxic than oxybenzone | Some in vivo antioxidant activity was seen | significantly more active antioxidant |

— patent US20260060907A1, “GADUSOL-CONTAINING SUNSCREEN FORMULATIONS” (ARCAEA, LLC, priority 2022, published 2026)
